target: Genome polyprotein 3C proteinase (Hepatitis A virus); experiment: Reversible inhibitory activity against Protease

Row | IC50 [µM] | SMILES
1 | 1.6 | CC(=O)N[C@@H](CC(C)C)C(=O)N[C@@H](C)C(=O)N[C@@H](C)C(=O)N[C@@H](C[C@@H]1CCNC1=O)C(=O)Cn1[nH]c(=O)c2c([N+](=O)[O-])cccc2c1=O [(S)-2-Acetylamino-4-methyl-pentanoic acid ((S)-1-{1-[(S)-3-(5-nitro-1,4-dioxo-3,4-dihydro-1H-phthalazin-2-yl)-2-oxo-1-((1S,4S)-2-oxo-pyrrolidin-3-ylmethyl)-propylcarbamoyl]-ethylcarbamoyl}-ethyl)-amide]
2 | 13 | CC(=O)N[C@@H](CC(C)C)C(=O)N[C@@H](C)C(=O)N[C@@H](C)C(=O)N[C@@H](CCC(=O)N(C)C)C(=O)Cn1[nH]c(=O)c2ccccc2c1=O [(S)-4-{(S)-2-[(S)-2-((S)-2-Acetylamino-4-methyl-pentanoylamino)-propionylamino]-propionylamino}-6-(1,4-dioxo-3,4-dihydro-1H-phthalazin-2-yl)-5-oxo-hexanoic acid dimethylamide]
3 | 2 | CC(=O)N[C@@H](CC(C)C)C(=O)N[C@@H](C)C(=O)N[C@@H](C)C(=O)N[C@@H](C[C@@H]1CCNC1=O)C(=O)Cn1[nH]c(=O)c2c(F)c(F)c(F)c(F)c2c1=O [(S)-2-Acetylamino-4-methyl-pentanoic acid ((S)-1-{1-[(S)-2-oxo-1-((1S,4S)-2-oxo-pyrrolidin-3-ylmethyl)-3-(5,6,7,8-tetrafluoro-1,4-dioxo-3,4-dihydro-1H-phthalazin-2-yl)-propylcarbamoyl]-ethylcarbamoyl}-ethyl)-amide]

From BindingDB's records for doi:10.1016/j.bmcl.2004.05.021 (University of Alberta, 2004)
